Measured values taken from patent US11999727B2 (Tango Therapeutics, Inc., priority 2020, dated 2024).
Where two headings read alike, the source gives them in different places.

Columns and labels:
PRMT5 [1] = biological target: T1, PRMT5 (Homo sapiens, UniProt O14744); assay: PRMT5 biochemical IC50 assay with no cofactor
T1 construct: purchased Viva (custom protein)
Source text: Table 1 indicates IC50 values (μM) against PRMT5 for exemplary compounds in the presence of SAM as cofactor, with no cofactor, and with MTA as cofactor, respectively (columns 4-6). […] Ki values can be calculated from the IC50 values as described in the Examples section. As detailed in the Examples section, for the assay performed in the presence of SAM, IC50=Ki×1.5 (Ki=IC50/1.5).

[2] = test system: HAP1 MTAP-intact cell line; assay: SDMA in-cell western assay, HAP1 MTAP-intact; type: cell-based; settings: Homo sapiens
Method in brief: (§1)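 IC50 values come from SDMA signal quantified by in-cell western in two HAP1 lines, one with native MTAP levels and one lacking MTAP.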

[3] = test system: HAP1 MTAP-deleted cell line; assay: SDMA in-cell western assay, HAP1 MTAP-deleted; type: cell-based; settings: for IC50: Homo sapiens; for MTAP intact/deleted ratio: IC50 ratio HAP1 MTAP-intact vs HAP1 MTAP-deleted, SDMA in-cell western
Method in brief: as §1

[4] = test system: HAP1 MTAP-deleted cell line; assay: Viability assay, MTAP-deleted cell line; type: cell-based; settings: Homo sapiens
Source text: Table 1 additionally indicates IC50 values in a viability assay for the MTAP-deleted cell line (column 10), indicating the effect of treatment with compound on cell survival.

PRMT5 [5] = biological target: T1, PRMT5; assay: PRMT5 biochemical IC50 assay with SAM as cofactor
PRMT5 [6] = biological target: T1, PRMT5; assay: PRMT5 biochemical IC50 assay with MTA as cofactor
[7] = PRMT5, no cofactor, read-out: No Cofactor/rel IC50
[8] = HAP1, SDMA in-cell western, HAP1 MTAP-intact, read-out: MTAP HAP1 intact IC50
[9] = HAP1, SDMA in-cell western, HAP1 MTAP-deleted, read-out: HAP1 MTAP deleted IC50
[10] = HAP1, viability assay, MTAP-deleted cell line, read-out: HAP1 MTAP deleted viability
[11] = PRMT5, SAM as cofactor, read-out: SAM IC50
[12] = PRMT5, MTA as cofactor, read-out: MTA IC50

T1 sequence (O14744 whole entry): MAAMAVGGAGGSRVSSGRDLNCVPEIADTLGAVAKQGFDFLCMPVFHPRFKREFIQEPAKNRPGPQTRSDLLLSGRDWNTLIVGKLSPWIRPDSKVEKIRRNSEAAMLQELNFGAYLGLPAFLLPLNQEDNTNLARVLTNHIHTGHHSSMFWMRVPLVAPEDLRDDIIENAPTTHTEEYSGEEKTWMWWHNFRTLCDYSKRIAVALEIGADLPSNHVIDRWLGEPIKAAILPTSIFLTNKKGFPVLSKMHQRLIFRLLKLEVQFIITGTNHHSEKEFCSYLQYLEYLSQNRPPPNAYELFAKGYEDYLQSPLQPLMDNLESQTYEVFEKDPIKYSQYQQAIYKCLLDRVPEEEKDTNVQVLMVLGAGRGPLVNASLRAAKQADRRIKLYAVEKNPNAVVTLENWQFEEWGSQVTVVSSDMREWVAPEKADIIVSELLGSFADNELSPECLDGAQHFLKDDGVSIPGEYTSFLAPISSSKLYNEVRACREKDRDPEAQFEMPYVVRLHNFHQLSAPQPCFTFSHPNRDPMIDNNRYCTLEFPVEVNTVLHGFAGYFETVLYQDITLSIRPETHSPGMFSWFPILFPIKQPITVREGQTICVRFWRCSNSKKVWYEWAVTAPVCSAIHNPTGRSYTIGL
T1 sequence (Q9BQA1 whole entry partner): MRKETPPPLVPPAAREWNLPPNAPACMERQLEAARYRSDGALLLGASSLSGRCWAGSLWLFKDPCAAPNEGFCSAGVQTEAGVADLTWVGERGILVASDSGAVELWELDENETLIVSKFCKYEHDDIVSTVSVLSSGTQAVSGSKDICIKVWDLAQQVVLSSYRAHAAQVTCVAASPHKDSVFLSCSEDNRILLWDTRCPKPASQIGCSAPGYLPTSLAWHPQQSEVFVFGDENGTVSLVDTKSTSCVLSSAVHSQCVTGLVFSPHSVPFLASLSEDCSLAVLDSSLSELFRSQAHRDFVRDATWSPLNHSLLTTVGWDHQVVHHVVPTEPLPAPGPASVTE

Row | SMILES | IC50 (PRMT5 [1]; [7]) [µM] | IC50 [2, 8] [µM] | IC50 [3, 9] [µM] | MTAP intact/deleted ratio [3] | IC50 [4, 10] [µM] | IC50 (PRMT5 [5]; [11]) [µM] | IC50 (PRMT5 [6]; [12]) [µM] | IC50 (PRMT5 [1]; No Cofactor/rel IC50, PRMT5, no cofactor) [µM] | IC50 ([2]; HAP1, read-out: MTAP HAP1 intact IC50) [µM] | IC50 ([3]; HAP1, read-out: HAP1 MTAP deleted IC50) [µM] | IC50 ([4]; HAP1, read-out: HAP1 MTAP deleted viability) [µM] | IC50 (PRMT5 [5]; SAM IC50, PRMT5, SAM as cofactor) [µM] | IC50 (PRMT5 [6]; MTA IC50, PRMT5, MTA as cofactor) [µM]
1 | CCc1cc(NC(=O)C(=O)N2C[C@@H](C)CC[C@@H]2c2ccc3sc(CN4CCOCC4)nc3c2)cnc1N [Compound 1092, N-(6-amino-5-ethylpyridin-3-yl)-2-((2R,5S)-5-methyl-2-(2-(morpholinomethyl)benzo[d]thiazol-5-yl)piperidin-1-yl)-2-oxoacetamide] | < 0.05 | 0.1 to 1 | < 0.1 | A (an IC50 ratio greater than or equal to 10 fold) | < 1 | 0.05 to 0.5 | < 0.05 | – | – | – | – | – | –
2 | CC(=O)N1CCC(c2nc3cc([C@H]4CC[C@H](C)CN4C(=O)C(=O)Nc4cnc(N)c(C)c4)ccc3s2)CC1 [Compound 1093, 2-((2R,5S)-2-(2-(1-acetylpiperidin-4-yl)benzo[d]thiazol-5-yl)-5-methylpiperidin-1-yl)-N-(6-amino-5-methylpyridin-3-yl)-2-oxoacetamide] | < 0.05 | < 0.1 | < 0.1 | A (an IC50 ratio greater than or equal to 10 fold) | < 1 | < 0.05 | < 0.05 | – | – | – | – | – | –
3 | CCc1cc(NC(=O)C(=O)N2C[C@@H](C)CC[C@@H]2c2ccc3sc(CCN4CCCC4)nc3c2)cnc1N [Compound 1095, N-(6-amino-5-ethylpyridin-3-yl)-2-((2R,5S)-5-methyl-2-(2-(2-(pyrrolidin-1-yl)ethyl)benzo[d]thiazol-5-yl)piperidin-1-yl)-2-oxoacetamide] | < 0.05 | < 0.1 | < 0.1 | A (an IC50 ratio greater than or equal to 10 fold) | < 1 | < 0.05 | < 0.05 | – | – | – | – | – | –
4 | CCc1cc(NC(=O)C(=O)N2C[C@@H](C)CC[C@@H]2c2ccc3sc(C4CCN(C)CC4)nc3c2)cnc1C [Compound 1100, N-(5-ethyl-6-methylpyridin-3-yl)-2-((2R,5S)-5-methyl-2-(2-(1-methylpiperidin-4-yl)benzo[d]thiazol-5-yl)piperidin-1-yl)-2-oxoacetamide] | < 0.05 | 0.1 to 1 | < 0.1 | A (an IC50 ratio greater than or equal to 10 fold) | < 1 | < 0.05 | < 0.05 | – | – | – | – | – | –
5 | CCc1cc(NC(=O)C(=O)N2C[C@@H](C)CC[C@@H]2c2ccc3sc([C@H]4C[C@H](N(C)C)C4)nc3c2)cnc1N [Compound 1101, N-(6-amino-5-ethylpyridin-3-yl)-2-((2R,5S)-2-(2-(3-(dimethylamino)cyclobutyl)benzo[d]thiazol-5-yl)-5-methylpiperidin-1-yl)-2-oxoacetamide] | < 0.05 | < 0.1 | < 0.1 | A (an IC50 ratio greater than or equal to 10 fold) | < 1 | < 0.05 | < 0.05 | – | – | – | – | – | –
6 | Cc1ncc(NC(=O)C(=O)N2C[C@@H](C)CC[C@@H]2c2ccc3sc(C4CCN(C)CC4)nc3c2)cc1Cl [Compound 1102, N-(5-chloro-6-methylpyridin-3-yl)-2-((2R,5S)-5-methyl-2-(2-(1-methylpiperidin-4-yl)benzo[d]thiazol-5-yl)piperidin-1-yl)-2-oxoacetamide] | < 0.05 | 0.1 to 1 | < 0.1 | A (an IC50 ratio greater than or equal to 10 fold) | < 1 | < 0.05 | < 0.05 | – | – | – | – | – | –
7 | CCc1cc(NC(=O)C(=O)N2C[C@@H](C)CC[C@@H]2c2ccc(NC3CCN(C)CC3)cc2)cnc1N [Compound 1112, N-(6-Amino-5-ethyl-3-pyridyl)-2-[(2R,5S)-5-methyl-2-[4-[(1-methyl-4-piperidyl)amino]phenyl]-1-piperidyl]-2-oxo-acetamide] | < 0.05 | 0.1 to 1 | < 0.1 | A (an IC50 ratio greater than or equal to 10 fold) | < 1 | 0.05 to 0.5 | < 0.05 | – | – | – | – | – | –
8 | Cc1cc(NC(=O)C(=O)N2C[C@@H](C)CC[C@@H]2c2ccc3sc(C4CCN(CCF)CC4)nc3c2)cnc1N [Compound 1114, N-(6-amino-5-methylpyridin-3-yl)-2-((2R,5S)-2-(2-(1-(2-fluoroethyl)piperidin-4-yl)benzo[d]thiazol-5-yl)-5-methylpiperidin-1-yl)-2-oxoacetamide] | < 0.05 | < 0.1 | < 0.1 | A (an IC50 ratio greater than or equal to 10 fold) | < 1 | < 0.05 | < 0.05 | – | – | – | – | – | –
9 | C[C@H]1CC[C@H](c2ccc3sc(C4CCN(C)CC4)nc3c2)N(C(=O)C(=O)Nc2cnc(N)c(C(F)(F)F)c2)C1 [Compound 1117, N-(6-amino-5-(trifluoromethyl)pyridin-3-yl)-2-((2R,5S)-5-methyl-2-(2-(1-methylpiperidin-4-yl)benzo[d]thiazol-5-yl)piperidin-1-yl)-2-oxoacetamide] | < 0.05 | 0.1 to 1 | < 0.1 | A (an IC50 ratio greater than or equal to 10 fold) | < 1 | < 0.05 | < 0.05 | – | – | – | – | – | –
10 | CCc1cc(NC(=O)C(=O)N2C[C@@H](C)CC[C@@H]2c2ccc3sc(C4(OC)CCN(C)CC4)nc3c2)cnc1N [Compound 1118, N-(6-amino-5-ethylpyridin-3-yl)-2-((2R,5S)-2-(2-(4-methoxy-1-methylpiperidin-4-yl)benzo[d]thiazol-5-yl)-5-methylpiperidin-1-yl)-2-oxoacetamide] | – | – | – | A (an IC50 ratio greater than or equal to 10 fold) | – | – | – | < 0.05 | < 0.1 | < 0.1 | < 1 | < 0.05 | < 0.05
11 | Cc1cc(NC(=O)C(=O)N2C[C@@H](C)CC[C@@H]2c2ccc3sc(C4CN(C)C4)nc3c2)cnc1C [Compound 1123, N-(5,6-dimethylpyridin-3-yl)-2-((2R,5S)-5-methyl-2-(2-(1-methylazetidin-3-yl)benzo[d]thiazol-5-yl)piperidin-1-yl)-2-oxoacetamide] | < 0.05 | 0.1 to 1 | < 0.1 | A (an IC50 ratio greater than or equal to 10 fold) | < 1 | < 0.05 | < 0.05 | – | – | – | – | – | –
12 | CCc1cc(NC(=O)C(=O)N2C[C@@H](C)CC[C@@H]2c2ccc3sc(C4CCN(CCC(F)(F)F)CC4)nc3c2)cnc1N [Compound 1124, N-(6-amino-5-ethylpyridin-3-yl)-2-((2R,5S)-5-methyl-2-(2-(1-(3,3,3-trifluoropropyl)piperidin-4-yl)benzo[d]thiazol-5-yl)piperidin-1-yl)-2-oxoacetamide] | < 0.05 | < 0.1 | < 0.1 | B (an IC50 ratio greater than or equal to 3 fold but lower than 10 fold) | < 1 | 0.05 to 0.5 | < 0.05 | – | – | – | – | – | –
13 | CCc1cc(NC(=O)C(=O)N2C[C@@H](C)CC[C@@H]2c2ccc3sc([C@H]4CCN(C)C(C)(C)C4)nc3c2)cnc1N [Compound 1125, N-(6-amino-5-ethylpyridin-3-yl)-2-((2R,5S)-5-methyl-2-(2-(1,2,2-trimethylpiperidin-4-yl)benzo[d]thiazol-5-yl)piperidin-1-yl)-2-oxoacetamide] | < 0.05 | < 0.1 | < 0.1 | A (an IC50 ratio greater than or equal to 10 fold) | < 1 | < 0.05 | < 0.05 | – | – | – | – | – | –
14 | CCc1cc(NC(=O)C(=O)N2C[C@@H](C)CC[C@@H]2c2ccc3sc([C@@H]4CN(C)CCO4)nc3c2)cnc1N [Compound 1134, N-(6-amino-5-ethyl-3-pyridyl)-2-oxo-2-[(2R,5S)-5-methyl-2-[2-[(2S)-4-methylmorpholin-2-yl]-1,3-benzothiazol-5-yl]-1-piperidyl]acetamide] | < 0.05 | < 0.1 | < 0.1 | A (an IC50 ratio greater than or equal to 10 fold) | < 1 | 0.05 to 0.5 | < 0.05 | – | – | – | – | – | –
15 | Cc1cc(NC(=O)C(=O)N2C[C@@H](C)CC[C@@H]2c2ccc3sc(C4CCN(C)CC4)nc3c2)cnc1C [Compound 1137, N-(5,6-dimethylpyridin-3-yl)-2-((2R,5S)-5-methyl-2-(2-(1-methylpiperidin-4-yl)benzo[d]thiazol-5-yl)piperidin-1-yl)-2-oxoacetamide] | < 0.05 | < 0.1 | < 0.1 | A (an IC50 ratio greater than or equal to 10 fold) | < 1 | < 0.05 | < 0.05 | – | – | – | – | – | –
